Measured values as given in PMC9544171, “Glucose‐dependent insulinotropic polypeptide receptor antagonist treatment causes a reduction in weight gain in ovariectomised high fat diet‐fed mice” (British Journal of Pharmacology, 2022).
Where a SMILES comes first, the peptide text is derived from it. The star is where a group is joined. C16 diacid = O=C(O)CCCCCCCCCCCCCCC(=O)*

Assays:
[1] = Pharmacokinetic analysis after s.c. administration, plasma radioimmunoassay; assay type: in vivo; details: sc, female C57Bl/6 mice, single s.c. 300 nmol·kg−1 (6 nmol per mouse), in‐house radioimmunoassay
Procedure: To assess mGIPAnt‐1 half‐life following subcutaneous (s.c.) administration, mice (n = 6) received a single s.c. administration of 300‐nmol·kg^−1 mGIPAnt‐1. Retro‐orbital blood samples (50 μl) were taken using EDTA coated glass capillaries at (1) t = 0, 0.5, 1, 1.5, 2 and 2.5 h, (2) t = 2.5, 3, 4, 6, 8 and 22 h, or (3) t = 22, 24, 26, 28, 30 and 32 h and immediately added to Eppendorf tubes (Eppendorf, Hamburg, Germany) and centrifuged at 3500g, 20 min, 4°C. Plasma was transferred into Eppendorf tubes on dry ice and stored at −20°C for analysis.
mGIPAnt‐1 levels were measured by an in‐house radioimmunoassay using a polyclonal antibody recognizing a mid‐regional part of GIP (code no. 95234) (Gasbjerg et al., [2017]). mGIPAnt‐1 was used as standard and the assay buffer was a 80‐mM phosphate buffer pH 7.5, containing (in final concentrations) 0.1% HSA, 10‐mM EDTA, 500‐KIU ml^−1 aprotinin and 0.01‐mM valine pyrrolidide. Samples were carefully diluted to ensure that samples would fall within the measurable range of the assay. […]
Results are presented as mean ± SE. Data were analysed with one‐way and two‐way analysis of variance (ANOVA) with Tukey's or Sidak multiple comparisons test and Student's unpaired t tests where appropriate. […] For the in vitro data IC50 values were determined by nonlinear regression using GraphPad Prism 9 (San Diego, California, USA). […]

[2] = tested on: Female ovariectomised C57Bl6/J mice; test: Terminal plasma adiponectin, triglyceride and glycerol; assay type: in vivo, mouse; details: 8 weeks of 300 nmol·kg−1 s.c. daily
Excerpt: A week after ovariectomy, at 10 weeks of age, animals were randomized into groups and placed on a 60 kcal% HFD (HFD, D12492, Research Diets, New Brunswick, NJ, USA) or a control diet (10 kcal% fat, D12450J, Research Diets) for 8 weeks. Group sizes were as follows: Vehicle/control diet, n = 12; mGIPAnt‐1/control diet, n = 12; Vehicle/HFD, n = 11; mGIPAnt‐1/HFD, n = 12. The reduction of animal numbers in group Vehicle/HFD was due to unexpected loss of an animal. Animals received a daily s.c. injection at 4:30 PM with mGIPAnt‐1 (300‐nmol·kg^−1) or vehicle. Body weight and body composition were assessed weekly (LF90II body composition analyzer, Bruker, Billerica, MA, USA). On the final experimental day, animals were anaesthetized with an intraperitoneal injection of 90 mg·kg^−1 ketamine and 10‐mg·kg^−1 xylazine. The microchip was quickly removed from HM‐2 cage animals and a final body composition measurement was performed on all animals. A terminal retro‐orbital blood sample was taken, mice were killed through cervical dislocation and tissues were quickly dissected and weighed.
Insulin levels in intraperitoneal glucose tolerance test and oral glucose tolerance test plasma samples were measured using a mouse insulin ELISA (catalogue no. 10‐1247‐10; Mercodia AB, Uppsala, Sweden). Adiponectin levels in terminal plasma samples were measured using a mouse adiponectin ELISA kit (catalogue no. 80569, Crystal Chem, Elk Grove Village, IL, USA). Adiponectin samples were carefully diluted in kit‐specific assay buffer. The manufacturer's instructions were followed closely.
Triglyceride and free glycerol levels in terminal plasma samples were determined using a triglyceride and free glycerol kit (TR0100‐1KT, Sigma‐Aldrich, St. Louis, MO, USA).

Structure (SMILES): CC[C@H](C)[C@H](NC(=O)[C@H](CO)NC(=O)[C@H](Cc1ccc(O)cc1)NC(=O)[C@H](CC(=O)O)NC(=O)[C@H](CO)NC(=O)[C@@H](NC(=O)[C@H](Cc1ccccc1)NC(=O)[C@@H](NC(=O)CNC(=O)[C@@H](N)CCC(=O)O)[C@@H](C)O)[C@@H](C)CC)C(=O)N[C@@H](C)C(=O)N[C@@H](CCSC)C(=O)N[C@@H](CC(=O)O)C(=O)N[C@@H](CCCCN)C(=O)N[C@H](C(=O)N[C@@H](CCCCNC(=O)CCCCCCCCCCCCCCC(=O)O)C(=O)N[C@@H](CCC(N)=O)C(=O)N[C@@H](CCC(N)=O)C(=O)N[C@@H](CC(=O)O)C(=O)N[C@@H](Cc1ccccc1)C(=O)N[C@H](C(=O)N[C@@H](CC(N)=O)C(=O)N[C@@H](Cc1c[nH]c2ccccc12)C(=O)N[C@@H](CC(C)C)C(=O)N[C@@H](CC(C)C)C(=O)N[C@@H](C)C(=O)N[C@@H](CCC(N)=O)C(=O)N[C@@H](CCCCN)C(=O)NCC(=O)N[C@@H](CCCCN)C(=O)N[C@@H](CCCCN)C(=O)N[C@@H](CC(N)=O)C(=O)N[C@@H](CC(=O)O)C(=O)N[C@@H](Cc1c[nH]c2ccccc12)C(=O)N[C@@H](CCCCN)C(=O)N[C@@H](Cc1c[nH]cn1)C(=O)N[C@@H](CC(N)=O)C(=O)O)C(C)C)[C@@H](C)CC [mGIPAnt‐1] (H-EGTFISDYSIAMDKIK(C16 diacid)QQDFVNWLLAQKGKKNDWKHN-OH)
- half-life ([1]; calculated between t = 1.5 h and 32 h, n = 6): ~7.2 h
- Tmax ([1]; n = 6, read-out: time of peak plasma concentration): 1.5 h
- terminal plasma glycerol [2]: did not significantly affect
- terminal plasma triglyceride [2]: did not significantly affect
- terminal plasma adiponectin ([2]; ELISA): did not significantly affect
- terminal plasma glycerol, HFD versus Vehicle/HFD ([2]; did not reach significance): trend towards increased glycerol levels
